Results: patent US9399637B2, “Substituted heteroaryl compounds and methods of use” (Calitor Sciences, LLC, priority 2014, dated 2016)

Experiments:
[1] = Compound stability in rat liver microsomes; format: in vitro ADME; conditions: pH 7.4; for half-life at 5 μM: rat liver microsomes 0.5 mg protein/mL, compound 5 μM, NADPH, 37° C., read-out: Rat T1/2; for CLint scaled at 5 μM: rat liver microsomes, in vivo CLint extrapolated
Experimental: (§1) Human or rat liver microsomes incubations were conducted in duplicate in polypropylene tubes. The typical incubation mixtures consisted of human or rat liver microsomes (0.5 mg protein/mL), compounds of interest (5 μM) and NADPH (1.0 mM) in a total volume of 200 μL potassium phosphate buffer (PBS, 100 mM, pH 7.4). Compounds were dissolved in DMSO and diluted with PBS such that the final concentration of DMSO was 0.05%. The enzymatic reactions were commenced with the addition of […] after a 3-min preincubation and incubated in a water bath open to the air at 37° C. Reactions were terminated at various time points (0, 5, 10, 15, 30, 60 min) by adding equal volume of ice-cold acetonitrile. The samples were stored at […] until LC/MS/MS assays.
(§2) The concentrations of compounds in the incubation mixtures of human or rat liver microsomes were determined by a LC/MS/MS method. The ranges of the linearity in the concentration range were determined for each tested compounds.
(§3) A parallel incubation was performed using denatured microsomes as the negative control, and reactions were terminated at various time points (0, 15, 60 min) after incubation at 37° C.
(§4) Dextromethorphan (70 μM) was selected as the positive control, and reactions were terminated at various time points (0, 5, 10, 15, 30, 60 min) after incubation at 37° C. Both positive and negative control samples were included in each assay to ensure the integrity of the microsomal incubation system.
(§5) The concentrations of compounds in human or rat liver microsome incubations were plotted as a percentage of the relevant zero time point control for each reaction. The in vivo CLint were extrapolated (ref.: Naritomi, Y.; Terashita, S.; Kimura, S.; Suzuki, A.; Kagayama, A.; and Sugiyama, Y.; Prediction of human hepatic clearance from in vivo animal experiments and in vitro metabolic studies with liver microsomes from animals and humans. Drug Metab. Dispos., 2001, 29: 1316-1324).

[2] = Compound stability in human liver microsomes; format: in vitro ADME; conditions: pH 7.4; for half-life at 5 μM: human liver microsomes 0.5 mg protein/mL, compound 5 μM, NADPH, 37° C., read-out: Human T1/2; for CLint scaled at 5 μM: human liver microsomes, in vivo CLint extrapolated
Experimental: as §1, §2, §3, §4, §5

[3] = Pharmacokinetics after intravenous and oral administration in rats; format: in vivo; conditions: iv dosing, 1 mg/kg; for AUC(0-t) / half-life / Vd: rat, plasma; for Vd: read-out: Vss
Experimental: The LC/MS/MS system used in the analysis consists of an Agilent 1200 Series vacuum degasser, binary pump, well-plate autosampler, thermostatted column compartment, the Agilent G6430 Triple Quadrupole Mass Spectrometer with an electrosprayionization (ESI) source. Quantitative analysis was carried out using MRM mode. The parameters for MRM transitions are in the Table A.
An Agilent XDB-C18, 2.1×30 mm, 3.5 μM column was used for the analysis. 5 μL of the samples were injected. Analysis condition: The mobile phase was 0.1% formic acid in water (A) and 0.1% formic acid in methanol (B). The flow rate was 0.4 mL/min. And the gradient of Mobile phase was in the Table B.
Alternatively, an Agilent 6330 series LC/MS/MS spectrometer equipped with G1312A binary pumps, a G1367A autosampler and a G1314C UV detector were used in the analysis. An ESI source was used on the LC/MS/MS spectrometer. The analysis was done in positive ion mode as appropriate and the MRM transition for each analyte was optimized using standard solution. A Capcell MP-C18 100×4.6 mm I.D., […] column (Phenomenex, Torrance, Calif., USA) was used during the analysis. The mobile phase was 5 mM ammonia acetate, 0.1% MeOH in water (A): 5 mM ammonia acetate, 0.1% MeOH in acetonitrile (B) (70:30, v/v). The flow rate was 0.6 mL/min. Column was maintained at ambient temperature. 20 μL of the samples were injected.
The compounds disclosed herein are assessed in pharmacokinetic studies in mice, rats, dogs or monkeys. The compounds are administered as a water solution, 2% HPMC+1% TWEEN®80 in water solution, 5% DMSO+5% solutol in saline, 4% MC suspension or capsule. For the intravenous administration, the animals are generally given at 1 or 2 mg/kg dose. For the oral (p.o.) dosing, mice and rats are generally given 5 or 10 mg/kg dose, and dogs and monkeys are generally given 10 mg/kg dose. The blood samples (0.3 mL) are drawn at 0.25, 0.5, 1.0, 2.0, 3.0, 4.0, 6.0, 8.0, 12 and 24 h time points or 0.083, 0.25, 0.5, 1.0, 2.0, 4.0, 6.0, 8.0 and 24 h time points and centrifuged at 3,000 or 4000 rpm for 2 to 10 min. The plasma solutions are collected, and stored at −20° C. or −70° C. until analyzed by LC/MS/MS as described above.

JAK2 (h) = biological target: T1, JAK2 (h) (Homo sapiens, UniProt O60674); experiment: JAK2 kinase assay; format: biochemical
T1 construct: purchased Millipore UK Ltd (assays run there as a service)
T1 sequence (O60674 whole entry): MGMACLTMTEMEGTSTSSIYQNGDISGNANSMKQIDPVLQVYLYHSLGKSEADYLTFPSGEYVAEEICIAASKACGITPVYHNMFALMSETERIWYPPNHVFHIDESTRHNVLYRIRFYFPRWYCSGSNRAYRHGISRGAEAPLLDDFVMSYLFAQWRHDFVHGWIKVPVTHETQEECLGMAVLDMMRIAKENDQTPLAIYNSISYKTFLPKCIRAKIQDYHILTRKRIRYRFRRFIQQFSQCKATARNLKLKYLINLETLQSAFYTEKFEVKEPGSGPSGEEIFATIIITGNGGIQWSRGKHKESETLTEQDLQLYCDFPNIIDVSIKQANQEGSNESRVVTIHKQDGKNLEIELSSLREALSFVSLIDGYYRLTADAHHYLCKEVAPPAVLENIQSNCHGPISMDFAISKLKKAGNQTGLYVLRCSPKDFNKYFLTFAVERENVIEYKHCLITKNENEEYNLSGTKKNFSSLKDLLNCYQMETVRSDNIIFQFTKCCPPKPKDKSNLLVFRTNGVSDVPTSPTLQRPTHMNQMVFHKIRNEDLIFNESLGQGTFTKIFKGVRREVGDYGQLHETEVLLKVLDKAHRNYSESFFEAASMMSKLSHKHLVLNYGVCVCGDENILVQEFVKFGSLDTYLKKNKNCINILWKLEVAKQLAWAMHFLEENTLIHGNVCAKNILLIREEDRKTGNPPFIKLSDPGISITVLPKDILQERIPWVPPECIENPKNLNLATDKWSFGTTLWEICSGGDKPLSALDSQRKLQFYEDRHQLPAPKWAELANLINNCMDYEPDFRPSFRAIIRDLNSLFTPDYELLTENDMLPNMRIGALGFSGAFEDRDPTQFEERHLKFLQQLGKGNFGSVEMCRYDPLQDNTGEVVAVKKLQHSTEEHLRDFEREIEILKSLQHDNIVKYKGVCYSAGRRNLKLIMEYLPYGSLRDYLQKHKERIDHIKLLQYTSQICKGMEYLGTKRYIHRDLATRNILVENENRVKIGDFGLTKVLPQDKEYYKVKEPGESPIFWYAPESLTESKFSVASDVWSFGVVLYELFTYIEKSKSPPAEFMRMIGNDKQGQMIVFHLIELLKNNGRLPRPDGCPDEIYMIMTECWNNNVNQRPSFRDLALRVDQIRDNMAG
Experimental: (§6) Kinase assays can be performed by measurement of incorporation of γ-^33P ATP into immobilized myelin basic protein (MBP). High binding white 384 well plates (Greiner) are coated with MBP (Sigma #M-1891) by incubation of 60 μL/well of 20 μg/mL MBP in Tris-buffered saline (TBS; 50 mM Tris pH 8.0, 138 mM NaCl, 2.7 mM KCl) for 24 h at 4° C. Plates are washed 3× with 100 μL TBS. Kinase reactions are carried out in a total volume of 34 μL in kinase buffer (5 mM Hepes pH 7.6, 15 mM NaCl, 0.01% bovine gamma globulin (Sigma #I-5506), 10 mM MgCl2, 1 mM DTT, 0.02% TritonX-100). Compound dilutions are performed in DMSO and added to assay wells to a final DMSO concentration of 1%. Each data point is measured in duplicate, and at least two duplicate assays are performed for each individual compound determination. Enzyme is added to final concentrations of 10 nM or 20 nM, for example. A mixture of unlabeled ATP and γ-^33P ATP is added to start the reaction (2×10^6 cpm of γ-^33P ATP per well (3000 Ci/mmole) and 10 μM unlabeled ATP, typically. The reactions are carried out for 1 h at room temperature with shaking Plates are washed 7× with TBS, followed by the addition of 50 μL/well scintillation fluid (Wallac). Plates are read using a Wallac Trilux counter. This is only one format of such assays; various other formats are possible, as known to one skilled in the art.
(§7) The above assay procedure can be used to determine the IC50 for inhibition and/or the inhibition constant, Ki. The IC50 is defined as the concentration of compound required to reduce the enzyme activity by 50% under the condition of the assay. The IC50 value is estimated by preparing a 10 point curve using a ½ log dilution series (for example, a typical curve may be prepared using the following compound concentrations: 3 μM, 1 μM, 0.3 μM, 0.1 μM, 0.03 μM, 0.01 μM, 0.003 μM, 0.001 μM, 0.0003 μM and 0 μM).
(specific activity approx. 500 cpm/pmol, concentration as required).
(§8) The kinase assays described herein were performed at Millipore UK Ltd, Dundee Technology Park, Dundee DD2 1SW, UK.

JAK1 (h) = biological target: T2, JAK1 (h) (Homo sapiens, UniProt P23458); experiment: JAK1 kinase assay; format: biochemical
T2 construct: purchased Millipore UK Ltd (assays run there as a service)
T2 sequence (P23458 whole entry): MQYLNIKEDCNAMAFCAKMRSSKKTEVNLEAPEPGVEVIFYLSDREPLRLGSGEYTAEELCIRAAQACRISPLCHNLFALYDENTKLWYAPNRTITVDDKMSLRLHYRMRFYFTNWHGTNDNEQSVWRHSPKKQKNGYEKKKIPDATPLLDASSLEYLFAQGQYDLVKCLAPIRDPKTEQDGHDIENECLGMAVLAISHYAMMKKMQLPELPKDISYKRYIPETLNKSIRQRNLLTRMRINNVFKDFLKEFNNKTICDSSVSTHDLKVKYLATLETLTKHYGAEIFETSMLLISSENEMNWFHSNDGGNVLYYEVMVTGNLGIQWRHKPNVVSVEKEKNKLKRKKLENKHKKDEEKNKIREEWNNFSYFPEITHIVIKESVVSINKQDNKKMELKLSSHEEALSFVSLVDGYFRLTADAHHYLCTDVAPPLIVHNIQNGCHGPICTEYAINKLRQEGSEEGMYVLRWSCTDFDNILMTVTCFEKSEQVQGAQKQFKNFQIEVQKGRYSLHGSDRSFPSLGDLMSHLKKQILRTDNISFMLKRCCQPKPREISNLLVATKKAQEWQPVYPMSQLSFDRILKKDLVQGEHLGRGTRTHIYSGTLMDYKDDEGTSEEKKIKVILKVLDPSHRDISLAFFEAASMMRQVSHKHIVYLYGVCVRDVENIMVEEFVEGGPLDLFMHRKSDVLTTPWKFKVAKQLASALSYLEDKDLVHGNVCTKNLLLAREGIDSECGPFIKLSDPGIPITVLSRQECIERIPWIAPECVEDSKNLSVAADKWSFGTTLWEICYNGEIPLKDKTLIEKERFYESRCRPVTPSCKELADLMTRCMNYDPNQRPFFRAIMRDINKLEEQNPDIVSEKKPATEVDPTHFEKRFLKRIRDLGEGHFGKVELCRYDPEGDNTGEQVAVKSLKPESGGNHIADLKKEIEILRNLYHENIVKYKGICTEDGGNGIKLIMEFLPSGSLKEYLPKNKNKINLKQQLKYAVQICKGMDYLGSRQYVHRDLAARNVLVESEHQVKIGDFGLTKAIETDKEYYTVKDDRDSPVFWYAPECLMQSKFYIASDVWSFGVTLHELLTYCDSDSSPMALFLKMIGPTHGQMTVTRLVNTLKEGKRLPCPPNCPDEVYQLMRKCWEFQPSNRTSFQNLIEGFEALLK
Experimental: as §6, §7
JAK1 (h) is incubated with 20 mM Tris/HCl pH 7.5, 0.2 mM EDTA, 500 μM […], 10 mM MgAcetate and [γ-^33P-ATP] (specific activity approx. 500 cpm/pmol, concentration as required).
as §8

Structure (SMILES) | half-life at 5 μM [1] [min] | CLint scaled at 5 μM [1] [mL/min/kg] | half-life at 5 μM [2] [min] | CLint scaled at 5 μM [2] [mL/min/kg] | Cl/F [3] [mL/min/kg] | AUC(0-t) [3] [ng·h/mL] | half-life [3] [min] | Vd [3] [L/kg] | IC50 (JAK2 (h)) [nM] | IC50 (JAK1 (h)) [nM]
Cc1c2ccc(Nc3nccc(N(C)C4CCC5(CC4)CCN(C(=O)CC#N)C5)n3)cc2nn1C (stereo not drawn) [Ex. 2, 3-(8-((2-((2,3-dimethyl-2H-indazol-6-yl)amino)pyrimidin-4-yl)(methyl)amino)-2-azaspiro[4.5]decan-2-yl)-3-oxopropanenitrile] | 22.2 | 112 | 20.3 | 85.5 | 49.8 | 332 | 109 | 3.59 |  | 
Cc1c2ccc(Nc3ncc(Cl)c(NC4CCC5(CC4)CCN(C(=O)CC#N)CC5)n3)cc2nn1C [Ex. 6, 3-(9-((5-chloro-2-((2,3-dimethyl-2H-indazol-6-yl)amino)pyrimidin-4-yl)amino)-3-azaspiro[5.5]undecan-3-yl)-3-oxopropanenitrile] | 41 | 60.6 | 79.8 | 21.8 | 22.3 | 743 | 78.6 | 2.55 | 2 | 0.6
Cc1cnc(Nc2ccc3c(C)n(C)nc3c2)nc1NC1CC2CN(C(=O)CC#N)CC2C1 (stereo not drawn) [Ex. 9, 3-(5-((2-((2,3-dimethyl-2H-indazol-6-yl)amino)-5-methylpyrimidin-4-yl)amino)hexahydrocyclopenta[c]pyrrol-2(1H)-yl)-3-oxopropanenitrile] | 52.7 | 47.1 | 31.2 | 55.7 |  |  |  |  |  | 2
Cc1cnc(Nc2ccc3c(C)n(C)nc3c2)nc1NC1CC2CN(S(C)(=O)=O)CC2C1 (stereo not drawn) [Ex. 10, N^2-(2,3-dimethyl-2H-indazol-6-yl)-5-methyl-N^4-(2-(methylsulfonyl)octahydrocyclopenta[c]pyrrol-5-yl)pyrimidine-2,4-diamine] | 50.7 | 49 | 20 | 87 | 33.2 | 501 | 43.8 | 1.75 |  | 7
CC(=O)N1CC2CC(Nc3nc(Nc4ccc5c(C)n(C)nc5c4)ncc3C)CC2C1 (stereo not drawn) [Ex. 11, 1-(5-((2-((2,3-dimethyl-2H-indazol-6-yl)amino)-5-methylpyrimidin-4-yl)amino)hexahydrocyclopenta[c]pyrrol-2(1H)-yl)ethanone] |  |  |  |  |  |  |  |  |  | 57
Cc1cnc(Nc2ccc3c(C)n(C)nc3c2)nc1NC1CCC2(CC1)CCN(C(=O)CC#N)CC2 [Ex. 12, 3-(9-((2-((2,3-dimethyl-2H-indazol-6-yl)amino)-5-methylpyrimidin-4-yl)amino)-3-azaspiro[5.5]undecan-3-yl)-3-oxopropanenitrile] | 57.8 | 43 | 166 | 10.4 | 114 | 144 | 54 | 5.71 |  | 1
CC(=O)N1CCC2(CCC(Nc3nc(Nc4ccc5c(C)n(C)nc5c4)ncc3C)CC2)CC1 [Ex. 13, 1-(9-((2-((2,3-dimethyl-2H-indazol-6-yl)amino)-5-methylpyrimidin-4-yl)amino)-3-azaspiro[5.5]undecan-3-yl)ethanone] | 27.9 | 89.2 | 51.7 | 33.6 | 75.5 | 238 | 38.4 | 3.5 |  | 2
